Entries after “also recorded” stand apart in the source; their conditions may differ.
Assays:
[1] = tested on: ASMC apoptosis mediated by HDL2 from subject 10; test: Effect of N-SMase inhibitor on HDL2-induced ASMC apoptosis; format: cell-based, human; settings: GW 4869 20 umol/L; for effect of inhibitor on HDL2-induced ASMC apoptosis (words): HDL2 from subject 10
Description: The same procedure described in detail by Kolmakova et al., Arterioscler. Thromb. Vasc. Biol., 24:264-269 (2004) was used. In brief, 10^3 human ASMC (Cambrex, Walkersville, Md.), were grown on sterilized glass cover slips in 6-well trays and treated with 2.5 μL of the various lipoprotein fractions per ml of medium. After 24 hour incubation, the medium was removed and cells were fixed and stained. The average ApoA-I concentration in the HDL2 and HDL3 fractions was ˜25 mg/dL and ˜40 mg/dL, respectively.
The effect of GW 4869 (20 umol/L), a noncompetitive inhibitor of N-SMase (Luberto C. et al., J. Biol Chem., 277(43):41128-41139 (2002)), on ASMC apoptosis mediated by HDL2 from subject 10 was studied and the results are shown in FIG. 9. […] The effect of HDL2 on apoptosis was also dose-dependent: when only 1 μl of HDL2 was used a 20.1% apoptosis of ASMC resulted as compared to ˜50% apoptosis when 2.5 μl HDL2 from the same subject was used.

[2] = tested on: ICAM-1 expression by HAECs; test: ICAM-1 expression by HAECs exposed to lipoprotein fractions; format: cell-based, human; settings: HAECs pre-treated with inhibitor
[3] = tested on: Human aortic endothelial cells (HAECs); test: Nitric oxide (NO) release from HAECs incubated with HDL sub-fractions (DAF fluorescence); format: cell-based; settings: HAECs pretreated, then incubated with apoptotic HDL2
Description: Human aortic endothelial cells (HAECs) were incubated with HDL sub-fractions for 12 h from a subject with apoptotic HDL2 (and CAD) and a subject with non-apoptotic HDL2 (without CAD). The cells were then stained with 4′5′-diamino flourescein 2-diacetate (DAF) (Invitrogen/Molecular Probes, CA), a fluorescent probe that allows for real-time detection of NO. Following incubation cells were washed with phosphate buffered saline (PBS) to remove unbound dye and mounted on a drop of 10% glycerol in PBS and photographed by fluorescence microscopy.

[4] = biological target: T1, lecithin-cholesterol acyl transferase (LCAT) (Homo sapiens, UniProt P04180); settings: % of the activity demonstrated by apoA-I; cited from earlier work
T1 sequence (P04180 25-440): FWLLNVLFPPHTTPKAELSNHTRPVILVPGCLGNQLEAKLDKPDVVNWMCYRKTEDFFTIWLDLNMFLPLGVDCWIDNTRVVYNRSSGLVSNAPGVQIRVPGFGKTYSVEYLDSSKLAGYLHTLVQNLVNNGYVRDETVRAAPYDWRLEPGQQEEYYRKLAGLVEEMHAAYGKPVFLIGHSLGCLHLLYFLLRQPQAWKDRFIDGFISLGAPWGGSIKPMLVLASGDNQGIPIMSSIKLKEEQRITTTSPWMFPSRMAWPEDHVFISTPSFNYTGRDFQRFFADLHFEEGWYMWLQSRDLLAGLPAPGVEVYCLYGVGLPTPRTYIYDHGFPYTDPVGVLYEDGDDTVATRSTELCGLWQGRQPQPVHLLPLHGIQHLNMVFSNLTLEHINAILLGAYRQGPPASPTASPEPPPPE

Compound: O=C(/C=C/c1ccc(/C=C/C(=O)Nc2ccc(C3=NCCN3)cc2)cc1)Nc1ccc(C2=NCCN2)cc1 [GW4869]
- number of apoptotic cells with HDL2 plus inhibitor ([1]; 1 μL HDL2 from subject 10, 20.1% without inhibitor): 1.19%
- effect of inhibitor on HDL2-induced ASMC apoptosis (words) [1]: inhibits apoptosis
- effect of inhibitor on HDL2-induced ASMC apoptosis (words) ([1]; listed as GW 4869): almost completely prevented HDL2-induced apoptosis

Compound: CNC(=N)NCCC[C@H](N)C(=O)O [NMLA, NG monomethyl-L-arginine]
- effect of pre-treating HAECs on HDL2-increased ICAM-1 expression [2]: attenuated

Compound: S=C(S)N1CCCC1 [PDTC, Pyrrolidine dithiocarbamate]
- effect of pretreatment on HDL2-induced NO release from HAECs [3]: markedly reduced NO release; also recorded: production of NO was blocked
- effect of pre-treating HAECs on HDL2-increased ICAM-1 expression [2]: attenuated

Compound: ApoC-I: mature 57 amino acid apolipoprotein C-I protein set forth in SEQ ID NO:6 (TPDVSSALDKLKEFGNTLEDKARELIBRINKQSELSAKMREWFSETFQKVKELKIDS; listed as Homo sapiens)
- LCAT stimulation, activity relative to apoA-I [4]: approximately 78%
